In general, inhibition refers to how much of the control response was suppressed. For orientation: pEC50 means the negative decadic logarithm of the EC50, by convention in mol/L.

Drawing on ChEMBL document CHEMBL5143750, “Bisubstrate Inhibitors of Severe Acute Respiratory Syndrome Coronavirus-2 Nsp14 Methyltransferase” (ACS Med Chem Lett, 2022), this text covers inhibition, EC50 and selectivity ratio for twelve compounds.

In series [1] the test system is SARS-CoV-2. As to the kind of experiment: Antiviral activity against SARS-CoV-2 infected in human A549 cells overexpressing ACE2 and TMPRSS2 assessed as inhibition of viral growth at 50 uM incubated for 48 hrs by DAPI staining based immunofluorescence assay. Type of series: functional. The conditions noted are these: Severe acute respiratory syndrome coronavirus 2, A549.

For series [2], the system named is SARS-CoV-2. As to the kind of experiment: Antiviral activity against SARS-CoV-2 infected in human A549 cells overexpressing ACE2 and TMPRSS2 assessed as reduction in viral growth incubated for 48 hrs by DAPI staining based immunofluorescence assay. Type of series: functional, organism-based. The settings on record: Severe acute respiratory syndrome coronavirus 2, A549, 48 h.

Series [3] in a line: Therapeutic index, ratio of CC50 for cytotoxicity against human A549 cells overexpressing ACE2 and TMPRSS2 to EC50 for antiviral activity against SARS-CoV-2 infected in human A549 cells overexpressing ACE2 and TMPRSS2 assessed as reduction in viral growth. Type of series: toxicity, cell-based. The settings on record: read-out: Ratio CC50/EC50.

pEC50: −log10 of the molar value. Bounds are passed on as bounds.

As to `Nc1ncnc2c1ncn2[C@@H]1O[C@H](CNCc2ccc3ccccc3c2)[C@@H](O)[C@H]1O`, the inhibition at 50 µM in the series with SARS-CoV-2 [1] is less than 15%.
Same read-out and setting: with `Nc1ncnc2c1ncn2[C@@H]1O[C@H](CNC(=O)c2ccc3ccccc3c2)[C@@H](O)[C@H]1O` the figure was less than 15%.
`Nc1ncnc2c1ncn2[C@@H]1O[C@H](CNS(=O)(=O)c2ccc3cccnc3c2)[C@@H](O)[C@H]1O`: the inhibition at 50 µM in the series with SARS-CoV-2 [1] was less than 15%.
For the compound `CC(=O)Nc1ncnc2c1ncn2[C@@H]1O[C@H](CNS(=O)(=O)c2ccc3ccccc3c2)[C@@H](O)[C@H]1O`, the inhibition at 50 µM in the series with SARS-CoV-2 [1] is less than 15%.
Still for that read-out and setting: with `Nc1ncnc2c1ncn2[C@@H]1O[C@H](CNS(=O)(=O)c2ccc3ccccc3c2)[C@@H](O)[C@H]1O` the figure was less than 15%.
Take `CC(C)C(=O)O[C@@H]1[C@H](OC(=O)C(C)C)[C@@H](CNS(=O)(=O)c2ccc3ccccc3c2)O[C@H]1n1cnc2c(N)ncnc21`: the pEC50 in the series on SARS-CoV-2 [2] was 4.01.
For `Nc1ncnc2c1ncn2[C@@H]1O[C@H](CNS(=O)(=O)c2ccc3nc(Cl)ccc3c2)[C@@H](O)[C@H]1O`, the inhibition at 50 µM with SARS-CoV-2 [1] was less than 15%.
In the case of `CC(=O)Nc1ncnc2c1ncn2[C@@H]1O[C@H](CNS(=O)(=O)c2ccc3ccccc3c2)[C@@H](OC(C)=O)[C@H]1OC(C)=O`, the pEC50 in the series on SARS-CoV-2 [2] was 4.21.
Take `Nc1ncnn2c([C@@H]3O[C@H](CNS(=O)(=O)c4ccc5ccccc5c4)[C@@H](O)[C@H]3O)ccc12`: the pEC50 in the series on SARS-CoV-2 [2] is 6.14. Further, in series [3], the selectivity ratio was greater than 139.
`CC(=O)O[C@@H]1[C@H](OC(C)=O)[C@@H](CNS(=O)(=O)c2ccc3ccccc3c2)O[C@H]1c1ccc2c(N)ncnn12`: the pEC50 in the series with SARS-CoV-2 [2] is 5.37.
Consider `CC(=O)O[C@@H]1[C@H](OC(C)=O)[C@@H](CNS(=O)(=O)c2ccc3ccccc3c2)O[C@H]1n1cnc2c(N)ncnc21`, for which the pEC50 in the series with SARS-CoV-2 [2] was 4.28.
For the compound `Nc1ncnc2c1ncn2[C@@H]1O[C@H](C[C@@H](N)CC[C@H](N)C(=O)O)[C@@H](O)[C@H]1O` [SINEFUNGIN], in the series with SARS-CoV-2 [1], the inhibition at 50 µM was less than 15%.
